Experimental data published in ChEMBL document CHEMBL3044753, “Polyamines May Modulate Both G Protein-Coupled Receptors and G Proteins” (Med Chem Res, 2004).
Activity calls are given as the source filed them. The calls are words filed in the database; no cut-off is given here.

What was measured:
[1] = test system: Left cardiac atrium; test: Negative ionotropic activity in electrically-paced Cavia porcellus (guinea pig) left atrium measured after 60 min by isometric transducer analysis in presence of benextramine/4-DAMP mustard; assay type: functional, tissue-based; conditions: 1 h
[2] = test system: Left cardiac atrium; test: Negative ionotropic activity in electrically-paced Cavia porcellus (guinea pig) left atrium measured after 60 min by isometric transducer analysis in presence of 4-DAMP mustard; assay type: functional, tissue-based
[3] = target: Muscarinic acetylcholine receptor M3 (Homo sapiens) (UniProt P20309); test: Binding affinity to Homo sapiens (human) recombinant muscarinic M3 receptor expressed in CHO cells assessed as [35S]GTPgammaS binding; assay type: functional, cell-based
[4] = test system: Left cardiac atrium; test: Negative ionotropic activity in electrically-paced Cavia porcellus (guinea pig) left atrium measured after 60 min by isometric transducer analysis in presence of benextramine; assay type: functional, tissue-based
[5] = test system: Right cardiac atrium; test: Negative ionotropic activity in electrically-paced Cavia porcellus (guinea pig) right atrium measured after 60 min by isometric transducer analysis in presence of benextramine; assay type: functional, tissue-based
[6] = test system: Right cardiac atrium; test: Negative ionotropic activity in electrically-paced Cavia porcellus (guinea pig) right atrium measured after 60 min by isometric transducer analysis in presence of ANR 83; assay type: functional, tissue-based
[7] = test system: Right cardiac atrium; test: Negative ionotropic activity in electrically-paced Cavia porcellus (guinea pig) right atrium measured after 60 min by isometric transducer analysis in presence of 4-DAMP mustard; assay type: functional, tissue-based
[8] = test system: Left cardiac atrium; test: Negative ionotropic activity in electrically-paced Cavia porcellus (guinea pig) left atrium measured immediately by isometric transducer analysis in presence of DPCPX; assay type: functional, tissue-based
[9] = test system: Left cardiac atrium; test: Negative ionotropic activity in electrically-paced Cavia porcellus (guinea pig) left atrium measured after 60 min by isometric transducer analysis in presence of AM 251; assay type: functional, tissue-based
[10] = target: T1, Muscarinic acetylcholine receptor M1 (Homo sapiens) (UniProt P11229); test: Allosteric modulation of Homo sapiens (human) recombinant muscarinic M1 receptor expressed in CHO cells assessed as inhibition of carbachol-induced [35S]GTPgammaS binding; assay type: functional, cell-based
T1 sequence (whole entry): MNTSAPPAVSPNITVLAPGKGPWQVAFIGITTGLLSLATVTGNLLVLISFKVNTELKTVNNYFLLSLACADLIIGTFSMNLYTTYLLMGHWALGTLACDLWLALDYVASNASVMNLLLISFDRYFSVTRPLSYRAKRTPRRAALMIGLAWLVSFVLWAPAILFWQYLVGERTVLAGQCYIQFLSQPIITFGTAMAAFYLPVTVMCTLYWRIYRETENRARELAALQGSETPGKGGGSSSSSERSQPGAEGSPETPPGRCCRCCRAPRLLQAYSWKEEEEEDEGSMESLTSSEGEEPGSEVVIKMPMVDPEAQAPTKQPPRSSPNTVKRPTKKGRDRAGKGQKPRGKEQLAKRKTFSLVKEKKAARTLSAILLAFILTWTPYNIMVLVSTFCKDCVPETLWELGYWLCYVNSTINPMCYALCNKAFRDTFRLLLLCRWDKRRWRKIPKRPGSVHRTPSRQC

[11] = test system: Left cardiac atrium; test: Negative ionotropic activity in electrically-paced Cavia porcellus (guinea pig) left atrium measured after 60 min by isometric transducer analysis in presence of benextramine/4-DAMP mustard relative to N-dodecyl lysine amide; assay type: functional
[12] = test system: Right cardiac atrium; test: Negative ionotropic activity in electrically-paced Cavia porcellus (guinea pig) right atrium measured after 60 min by isometric transducer analysis in presence of dihydroergocristine; assay type: functional, tissue-based
[13] = test system: Left cardiac atrium; test: Negative ionotropic activity in electrically-paced Cavia porcellus (guinea pig) left atrium measured after 60 min by isometric transducer analysis in presence of pimozide; assay type: functional, tissue-based
[14] = test system: Right cardiac atrium; test: Negative ionotropic activity in electrically-paced Cavia porcellus (guinea pig) right atrium measured after 60 min by isometric transducer analysis in presence of AM 251; assay type: functional, tissue-based
[15] = test system: Left cardiac atrium; test: Negative ionotropic activity in electrically-paced Cavia porcellus (guinea pig) left atrium measured after 60 min by isometric transducer analysis in presence of AM 630; assay type: functional, tissue-based
[16] = test system: Right cardiac atrium; test: Negative […] activity in electrically-paced Cavia porcellus (guinea pig) right atrium assessed as effect on force measured after 60 min by isometric transducer analysis in presence of benextramine/4-DAMP mustard; assay type: functional, tissue-based; conditions: 1 h
[17] = test system: Left cardiac atrium; test: Reversible negative ionotropic activity in electrically-paced Cavia porcellus (guinea pig) left atrium incubated for 30 min followed by compound-washout measured after 3 hr by isometric transducer analysis; assay type: functional, tissue-based
[18] = target: T2, Muscarinic acetylcholine receptor M2 (Homo sapiens) (UniProt P08172); test: Binding affinity to Homo sapiens (human) recombinant muscarinic M2 receptor expressed in CHO cells assessed as [35S]GTPgammaS binding; assay type: functional, cell-based
T2 sequence (whole entry): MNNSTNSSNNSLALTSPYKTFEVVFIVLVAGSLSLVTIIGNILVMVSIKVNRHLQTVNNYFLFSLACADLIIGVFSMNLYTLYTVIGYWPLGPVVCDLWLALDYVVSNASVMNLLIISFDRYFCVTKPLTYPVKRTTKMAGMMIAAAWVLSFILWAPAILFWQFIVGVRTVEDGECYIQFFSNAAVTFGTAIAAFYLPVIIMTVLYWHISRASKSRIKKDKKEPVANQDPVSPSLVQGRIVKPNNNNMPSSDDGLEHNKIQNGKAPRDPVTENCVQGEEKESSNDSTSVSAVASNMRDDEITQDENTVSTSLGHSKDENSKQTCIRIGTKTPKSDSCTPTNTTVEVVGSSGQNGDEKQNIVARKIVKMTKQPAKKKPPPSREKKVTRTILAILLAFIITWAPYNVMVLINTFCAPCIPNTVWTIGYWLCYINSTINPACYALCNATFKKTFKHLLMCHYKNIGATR

[19] = test system: Left cardiac atrium; test: Negative ionotropic activity in electrically-paced Cavia porcellus (guinea pig) left atrium measured after 60 min by isometric transducer analysis in presence of ANR 83; assay type: functional, tissue-based
[20] = target: T2, Muscarinic acetylcholine receptor M2 (Homo sapiens); test: Allosteric modulation of Homo sapiens (human) recombinant muscarinic M2 receptor expressed in CHO cells assessed as inhibition of N-[3H]methylscopalamine dissociation at 20 uM incubated at 1 hr post N-[3H]methylscopalamine addition measured after 5 min by filter binding assay; assay type: cell-based
[21] = target: T1, Muscarinic acetylcholine receptor M1 (Homo sapiens); test: Binding affinity to Homo sapiens (human) recombinant muscarinic M1 receptor expressed in CHO cells assessed as [35S]GTPgammaS binding; assay type: functional, cell-based
[22] = test system: Right cardiac atrium; test: Negative ionotropic activity in electrically-paced Cavia porcellus (guinea pig) right atrium measured after 60 min by isometric transducer analysis in presence of prazosin; assay type: functional, tissue-based
[23] = test system: Left cardiac atrium; test: Negative ionotropic activity in electrically-paced Cavia porcellus (guinea pig) left atrium measured after 60 min by isometric transducer analysis in presence of naloxane; assay type: functional, tissue-based
[24] = test system: Left cardiac atrium; test: Negative ionotropic activity in electrically-paced Cavia porcellus (guinea pig) left atrium measured after 60 min by isometric transducer analysis in presence of prazosin; assay type: functional, tissue-based
[25] = test system: Right cardiac atrium; test: Negative […] activity in electrically-paced Cavia porcellus (guinea pig) right atrium measured after 60 min by isometric transducer analysis in presence of thioperamide; assay type: functional, tissue-based
[26] = target: T2, Muscarinic acetylcholine receptor M2 (Homo sapiens); test: Allosteric modulation of Homo sapiens (human) recombinant muscarinic M2 receptor expressed in CHO cells assessed as inhibition of carbachol-induced [35S]GTPgammaS binding; assay type: functional, cell-based
[27] = test system: Left cardiac atrium; test: Negative ionotropic activity in electrically-paced Cavia porcellus (guinea pig) left atrium measured after 60 min by isometric transducer analysis in presence of bupranolol; assay type: functional, tissue-based
[28] = test system: Right cardiac atrium; test: Negative ionotropic activity in electrically-paced Cavia porcellus (guinea pig) right atrium measured after 60 min by isometric transducer analysis in presence of bupranolol; assay type: functional, tissue-based
[29] = test system: Left cardiac atrium; test: Negative ionotropic activity in electrically-paced Cavia porcellus (guinea pig) left atrium measured after 60 min by isometric transducer analysis in presence of DPCPX; assay type: functional, tissue-based

Sequence of Muscarinic acetylcholine receptor M3 (Homo sapiens) (P20309 whole entry, looked up): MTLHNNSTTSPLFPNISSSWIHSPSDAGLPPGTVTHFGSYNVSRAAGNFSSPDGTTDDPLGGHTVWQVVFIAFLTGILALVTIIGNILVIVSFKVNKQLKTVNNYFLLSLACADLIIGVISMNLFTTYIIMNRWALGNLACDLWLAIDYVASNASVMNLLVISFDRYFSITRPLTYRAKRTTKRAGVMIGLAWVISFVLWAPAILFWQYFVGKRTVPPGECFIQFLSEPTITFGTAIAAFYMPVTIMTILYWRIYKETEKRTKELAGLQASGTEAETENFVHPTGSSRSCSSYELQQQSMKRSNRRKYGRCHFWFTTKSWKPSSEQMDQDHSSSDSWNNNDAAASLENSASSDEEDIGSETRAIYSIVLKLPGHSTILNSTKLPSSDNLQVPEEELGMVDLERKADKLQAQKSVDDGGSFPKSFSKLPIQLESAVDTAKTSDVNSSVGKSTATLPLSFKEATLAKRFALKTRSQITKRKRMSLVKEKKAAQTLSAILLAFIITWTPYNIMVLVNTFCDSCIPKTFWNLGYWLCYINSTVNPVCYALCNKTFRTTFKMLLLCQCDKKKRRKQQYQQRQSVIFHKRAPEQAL

Row | Compound | EC50 [1] [nM] | Activity [2] | Activity [3] | Activity [4] | Activity [5] | Activity [6] | Activity [7] | Activity [9] | Activity [10] | Efficacy [11] [%] | Activity [12] | Activity [13] | Activity [14] | Activity [15] | EC50 [16] [nM] | Activity [17] | Activity [18] | Activity [19] | inhibition [20] | Activity [21] | also measured
1 | COc1ccccc1CN1CCC(C2CCN(C(=O)CCCCCCC(=O)N3CCC(C4CCN(Cc5ccccc5OC)CC4)CC3)CC2)CC1 [PIPERTRAMINE AMIDE] | 0.589 | Active | inactive | Active | Active | Active | Active | Active | Active | 85 | Active | Active | Active | Active | 3.16 | inactive | inactive | Active | Active | inactive | Activity [8]: Active; Activity [22]: Active; Activity [23]: Active; Activity [24]: Active; Activity [25]: Active; Activity [26]: Active; Activity [27]: Active; Activity [28]: Active; Activity [29]: Active
2 | COc1ccccc1CN1CCC(C2CCN(CCCCCCCCN3CCC(C4CCN(Cc5ccccc5OC)CC4)CC3)CC2)CC1 [PIPERTRAMINE] | 0.331 | Active | inactive | Active | Active | Active | Active | Active | Active | 96 | Active | Active | Active | Active | 0.263 | inactive | inactive | Active | Active | inactive | Activity [22]: Active; Activity [23]: Active; Activity [24]: Active; Activity [25]: Active; Activity [26]: Active; Activity [27]: Active; Activity [28]: Active; Activity [29]: Active
